Laboratory results as given in US20260158009A1 (GENZYME CORPORATION, priority 2023, published 2026).

Legend:
U937 cells = assay: Cellular assay in U937 cells: activity of RIPK1 inhibitors on TNFα/zVAD.fmk-induced cell death (necroptosis), CellTiter 96 AQueous (MTS) readout; type: cell-based; conditions: Homo sapiens, U-937
Outline: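 Necroptosis was measured by viable-cell MTS reduction (4 h, absorbance 490 nm) after overnight (18–24 h) 37° C culture. Cell suspensions of U937 cells carried TNFα (100 ng/ml) plus zVAD.fmk (50 μM) before compound was added. A 10-point curve (10 μM–0.26 nM or 1 μM–0.07 nM) was run in duplicate, normalised to the control lacking TNFα/zVAD.fmk.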

[1] = target: T1, hRIPK1 (aa 1-375) fusion protein (Homo sapiens, UniProt Q13546); assay: ADP-Glo kinase assay: catalytic activity of RIPK1 (autophosphorylation, conversion of ATP to ADP); type: biochemical
T1 construct: hRIPK1 (aa 1-375) fusion protein
T1 sequence (Q13546 1-375): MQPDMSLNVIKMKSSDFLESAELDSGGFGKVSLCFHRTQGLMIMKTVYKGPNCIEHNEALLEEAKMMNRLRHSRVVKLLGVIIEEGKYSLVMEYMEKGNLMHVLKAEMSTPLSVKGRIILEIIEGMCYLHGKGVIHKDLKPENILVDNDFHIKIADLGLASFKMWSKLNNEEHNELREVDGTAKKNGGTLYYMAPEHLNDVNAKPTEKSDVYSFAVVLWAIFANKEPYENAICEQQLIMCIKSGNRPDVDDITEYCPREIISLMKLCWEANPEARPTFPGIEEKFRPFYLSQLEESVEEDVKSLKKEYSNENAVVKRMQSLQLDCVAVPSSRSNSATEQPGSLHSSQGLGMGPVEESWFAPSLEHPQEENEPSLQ
Outline: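 hRIPK1 (aa 1-375) fusion protein (3.6 μg/ml final) was preincubated 30 min at rt with compound (33300-1.69 nM, 1% DMSO), then 50 μM ATP was added for 240 min at rt. ADP from autophosphorylation was measured by ADP-Glo luminescence and curves fitted by nonlinear regression.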

Row | IC50 [1] [nM] | Compound | IC50 (U937 cells) [nM]
1 | 23 | O=C1NCc2ccc(C[C@H]3CC[C@H](C(=O)N4OCC[C@H]4c4ccc(F)cc4)CC3)cc21 [compound 154, trans-6-[[4-[(3S)-3-(4-fluorophenyl)isoxazolidine-2-carbonyl]cyclohexyl]methyl]isoindolin-1-one] | 33
2 | 23 | Cn1nccc1C[C@H]1CC[C@H](C(=O)N2OCC[C@H]2c2cc(F)cc(C#N)c2)CC1 [compound 237, trans-3-fluoro-5-[(3S)-2-[4-[(2-methylpyrazol-3-yl)methyl]cyclohexanecarbonyl]isoxazolidin-3-yl]benzonitrile] | 66
3 | 14 | Cc1cc(C[C@H]2CC[C@H](C(=O)N3OCC[C@H]3c3cnccn3)CC2)c(F)cn1 [compound 394, trans-[4-[(5-fluoro-2-methylpyridin-4-yl)methyl]cyclohexyl]-[(3S)-3-pyrazin-2-yl-1,2-oxazolidin-2-yl]methanone] | 5
4 | 83 | Cc1ncc(C[C@H]2CC[C@H](C(=O)N3OCC[C@H]3c3cnccn3)CC2)cn1 [compound 346, trans-[4-[(2-methylpyrimidin-5-yl)methyl]cyclohexyl]-[(3S)-3-pyrazin-2-yl-1,2-oxazolidin-2-yl]methanone] | 70
5 | 32 | N#Cc1cc2c(cc1F)ncn2C[C@H]1CC[C@H](C(=O)N2OCC[C@H]2c2cnccn2)CC1 [compound 98, trans-5-fluoro-1-((4-((S)-3-(pyrazin-2-yl)isoxazolidine-2-carbonyl)cyclohexyl)methyl)-1H-benzo[d]imidazole-6-carbonitrile] | 84
6 | 78 | N#Cc1cc2ncn(C[C@H]3CC[C@H](C(=O)N4OCC[C@H]4c4cnccn4)CC3)c2cc1F [compound 97, trans-6-fluoro-1-((4-((S)-3-(pyrazin-2-yl)isoxazolidine-2-carbonyl)cyclohexyl)methyl)-1H-benzo[d]imidazole-5-carbonitrile] | 214
7 | 37 | N#Cc1cc(F)cc([C@@H]2CCON2C(=O)[C@H]2CC[C@H](Cn3cc4c(F)cc(C#N)cc4n3)CC2)c1 [compound 34, trans-2-((4-((S)-3-(3-cyano-5-fluorophenyl)isoxazolidine-2-carbonyl)cyclohexyl)methyl)-4-fluoro-2H-indazole-6-carbonitrile] | 69
8 | 4 | Cn1ncc2ccc(C[C@H]3CC[C@H](C(=O)N4OCC[C@H]4c4cc(F)cc(C#N)c4)CC3)cc21 [compound 294, trans-3-fluoro-5-[(3S)-2-[4-[(1-methylindazol-6-yl)methyl]cyclohexanecarbonyl]isoxazolidin-3-yl]benzonitrile] | 1
9 | 41 | COc1cncc([C@@H]2CCON2C(=O)[C@H]2CC[C@H](Cn3ncc4cc(C#N)ccc43)CC2)n1 [compound 217, trans-1-[[4-[(3S)-3-(6-methoxypyrazin-2-yl)isoxazolidine-2-carbonyl]cyclohexyl]methyl]indazole-5-carbonitrile] | 12
10 | 11 | N#Cc1cncc([C@@H]2CCON2C(=O)[C@H]2CC[C@H](Cn3ccc4c(F)cc(C#N)cc43)CC2)c1 [compound 130, trans-1-((4-((S)-3-(5-cyanopyridin-3-yl)isoxazolidine-2-carbonyl)cyclohexyl)methyl)-4-fluoro-1H-indole-6-carbonitrile] | 2
11 | 25 | Cc1nc2c(F)cc(C[C@H]3CC[C@H](C(=O)N4OCC[C@H]4c4cnccn4)CC3)cn2n1 [compound 340, trans-[4-[(8-fluoro-2-methyl-[1,2,4]triazolo[1,5-a]pyridin-6-yl)methyl]cyclohexyl]-[(3S)-3-pyrazin-2-yl-1,2-oxazolidin-2-yl]methanone] | 77
12 | 13 | O=C([C@H]1CC[C@H](Cc2ccc(CCO)c(F)c2)CC1)N1OCC[C@H]1c1cc(F)cc(F)c1 [compound 280, trans-[(3S)-3-(3,5-difluorophenyl)isoxazolidin-2-yl]-[4-[[3-fluoro-4-(2-hydroxyethyl)phenyl]methyl]cyclohexyl]methanone] | 7
13 | 19 | Cc1nc2ccc(C[C@H]3CC[C@H](C(=O)N4OCC[C@H]4c4cc(F)cc(F)c4)CC3)cn2n1 [compound 223, trans-[(3S)-3-(3,5-difluorophenyl)isoxazolidin-2-yl]-[4-[(2-methyl-[1,2,4]triazolo[1,5-a]pyridin-6-yl)methyl]cyclohexyl]methanone] | 5
14 | 10 | NC(=O)c1cc(C[C@H]2CC[C@H](C(=O)N3OCC[C@H]3c3cnccn3)CC2)ccc1F [compound 193, trans-2-fluoro-5-[[4-[(3S)-3-pyrazin-2-ylisoxazolidine-2-carbonyl]cyclohexyl]methyl]benzamide] | 14
15 | 15 | N#Cc1ccc2c(cnn2C[C@H]2CC[C@H](C(=O)N3OCC[C@H]3c3cc(F)cc(F)c3)CC2)c1 [compound 52, trans-1-((4-((S)-3-(3,5-difluorophenyl)isoxazolidine-2-carbonyl)cyclohexyl)methyl)-1H-indazole-5-carbonitrile] | 2
16 | 37 | Cc1nnc2c(F)cc(C[C@H]3CC[C@H](C(=O)N4OCC[C@H]4c4ccc(F)cc4)CC3)cn12 [compound 320, trans-[4-[(8-fluoro-3-methyl-[1,2,4]triazolo[4,3-a]pyridin-6-yl)methyl]cyclohexyl]-[(3S)-3-(4-fluorophenyl)isoxazolidin-2-yl]methanone] | 28
17 | 14 | Cc1cc(C[C@H]2CC[C@H](C(=O)N3OCC[C@H]3c3ccc(F)cc3)CC2)cn2c(C)nnc12 [compound 319, trans-[4-[(3,8-dimethyl-[1,2,4]triazolo[4,3-a]pyridin-6-yl)methyl]cyclohexyl]-[(3S)-3-(4-fluorophenyl)isoxazolidin-2-yl]methanone] | 33
18 | 113 | O=C([C@H]1CC[C@H](Cn2cnc3ccccc32)CC1)N1OCC[C@H]1c1cncc(F)c1 [compound 9, trans-(4-((1H-benzo[d]imidazol-1-yl)methyl)cyclohexyl)((S)-3-(5-fluoropyridin-3-yl)isoxazolidin-2-yl)methanone] | 174
19 | 14 | Cc1cn2nc(C[C@H]3CC[C@H](C(=O)N4OCC[C@H]4c4cc(F)cc(C#N)c4)CC3)c(C)cc2n1 [compound 292, trans-3-[(3S)-2-[4-[(2,7-dimethylimidazo[1,2-b]pyridazin-6-yl)methyl]cyclohexanecarbonyl]isoxazolidin-3-yl]-5-fluoro-benzonitrile] | 4
20 | 829 | Cn1cncc1C[C@H]1CC[C@H](C(=O)N2OCC[C@H]2c2cncc(C#N)c2)CC1 [compound 168, trans-5-[(3S)-2-[4-[(3-methylimidazol-4-yl)methyl]cyclohexanecarbonyl]isoxazolidin-3-yl]pyridine-3-carbonitrile] | 653
21 | 23 | N#Cc1cc(F)cc([C@@H]2CCON2C(=O)[C@H]2CC[C@H](Cn3cnc4c(F)cc(C#N)cc43)CC2)c1 [compound 36, trans-1-((4-((S)-3-(3-cyano-5-fluorophenyl)isoxazolidine-2-carbonyl)cyclohexyl)methyl)-4-fluoro-1H-benzo[d]imidazole-6-carbonitrile] | 20
